From publication PMC5514153, “Targeting PTPRZ inhibits stem cell-like properties and tumorigenicity in glioblastoma cells” (Scientific Reports, 2017)

Legend:
[1] = not told; cited from earlier work
[2] = test system: PTPRZ and PTPRG V-to-F substitution mutants; assay: Sensitivity of V-to-F mutants to competitive inhibitors; format: biochemical, human; settings: SCB4380 10 µM, vanadate 200 µM; on average
Experimental: For determination of IC50 values, Lineweaver-Burk plot, and inhibitor sensitivity assays, recombinant PTP proteins were preincubated with a dilution series of the compound in assay buffer (100 mM acetate, 50 mM Tris, and 50 mM Bis-Tris, pH 6.5 containing 100 μg/ml BSA, 5 mM DTT, and 0.01% Brij-35) for 1 h, and the enzyme-inhibitor mixture was added to an equal volume of 40 μM DiFMUP (6,8-difluoro-4-methylumbiliferyl phosphate, #D6567, Thermo Fisher Scientific) solution to initiate the reaction. The hydrolysis of DiFMUP was continuously monitored as an increase in fluorescence at 455 nm (excitation at 358 nm) for ~100 s using a spectrofluorometer (FI-4500, Hitachi) at room temperature. The slope of the fluorescence signal was defined as catalytic activity. IC50 values were calculated by the conventional linear interpolation method. We examined preincubation effect, reversibility, and time dependence of PTP inhibition by NAZ2329 as described in the figure legends.
Le ge nds to Supple me ntary Figure s
Supplementary Figure S1. Aberrant expressions of core transcription factors in Ptprz-knockdown glioblastoma cells. (A) Western using antibodies against SOX2, OLIG2, POU3F2, and SALL2. […] SALL2 proteins were not detected in C6 or U251 cells. […]
positions corresponding to Val-1911 of PTPRZ1 are colored in blue and red, respectively. […] Data were analyzed as […]

C6 xenograft = assay: C6 subcutaneous xenograft nude mouse model; format: in vivo; settings: nude mice, i.p. twice per week; NAZ2329 45 µmol (22.5 mg)/kg, TMZ 50 mg/kg; vehicle 17 days
Experimental: Figure 10 Antitumor effects of NAZ2329 on the C6 mouse xenograft model. (A) Nude mice were subcutaneously implanted with C6 cells (5 × 10^6 cells), and tumor size was monitored until the criteria were met (>150 mm^3). At this time, mice were randomly divided into 4 treatment groups. DMSO as the vehicle control (n = 7), NAZ2329 (45 µmol (22.5 mg)/kg body weight, n = 9), temozolomide (TMZ, 50 mg/kg, n = 9), and the combination of NAZ2329 (45 µmol/kg) with TMZ (50 mg/kg) (n = 9) were administered intraperitoneally twice per week until the humane endpoint (>3,000 mm^3 tumor size or 40 days after the treatment). Tumor growth in each animal and the number of days required to reach a tumor volume of 3,000 mm^3 are shown in the graph. Five mice were sacrificed due to tumor necrosis (shown by gray symbols in the graph), and two mice unexpectedly died suddenly during the observation period (black symbols in the graph).
Parental or Ptprz-knockdown C6 cells (5 × 10^6 cells) suspended in a volume of 100 µl were subcutaneously injected into the left hind limbs of BALB/c-nu/nu mice (females, 4 weeks old mice were purchased from Japanese Charles River Co. Ltd.). Tumor growth was measured with calipers and calculated by the formula: volume = length × width × width × 0.5, as previously described. The drug treatment initiated when the tumor size reached 150 mm^3. […]

[3] = target: T1, human PTPRZ1 (whole intracellular region, D1+D2) (Homo sapiens, UniProt P23471); assay: In vitro PTPase assay (DiFMUP), PTPRZ1 whole intracellular region; format: biochemical
T1 construct: Recombinant proteins corresponding to the entire intracellular regions (ICRs) of PTPRZ1, PTPRA, and PTPRM; made in house; host or cells: baculovirus-silkworm expression system
T1 sequence (P23471 1663-2315 limits assumed): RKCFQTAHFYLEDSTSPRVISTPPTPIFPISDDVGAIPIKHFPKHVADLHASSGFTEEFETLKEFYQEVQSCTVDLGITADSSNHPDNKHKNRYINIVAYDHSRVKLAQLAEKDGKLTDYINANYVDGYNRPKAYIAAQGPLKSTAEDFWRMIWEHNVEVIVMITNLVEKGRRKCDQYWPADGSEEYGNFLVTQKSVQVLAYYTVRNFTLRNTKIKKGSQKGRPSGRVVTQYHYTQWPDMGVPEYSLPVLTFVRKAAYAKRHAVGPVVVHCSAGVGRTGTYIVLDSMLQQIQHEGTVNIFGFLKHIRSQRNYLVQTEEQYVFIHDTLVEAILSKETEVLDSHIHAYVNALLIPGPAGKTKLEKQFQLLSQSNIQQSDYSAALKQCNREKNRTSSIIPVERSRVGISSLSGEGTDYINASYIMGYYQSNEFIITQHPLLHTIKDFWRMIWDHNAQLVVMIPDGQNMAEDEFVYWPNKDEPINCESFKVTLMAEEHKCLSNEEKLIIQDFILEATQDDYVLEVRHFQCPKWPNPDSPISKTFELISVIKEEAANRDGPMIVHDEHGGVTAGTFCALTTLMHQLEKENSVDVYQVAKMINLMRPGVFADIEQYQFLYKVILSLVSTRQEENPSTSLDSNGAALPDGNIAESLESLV
Experimental: Figure 4 NAZ2329, an allosteric inhibitor of R5 RPTP subfamily members. (A) Structure of NAZ2329. (B) Effect of preincubation of NAZ2329 on its inhibitory activity against PTPRZ. Recombinant human PTPRZ1 enzyme (the whole intracellular region) was premixed with NAZ2329 for the indicated times and followed by addition of a fluorogenic DiFMUP (non-specific PTP substrate, 6,8-difluoro-4-methylumbiliferyl phosphate) to measure PTP inhibitory activity. (C) Time dependence. The PTPRZ1 enzyme was added to the inhibitor–substrate mixture, and the inhibitory activity was determined at each time point relative to the vehicle control. (D) Reversibility of inhibition. PTPRZ1 enzymes were preincubated with NAZ2329 at the indicated concentrations for 30 min. The mixture was then 20-fold diluted, and recovered PTP activity was expressed as the relative activity compared with the vehicle-treated enzyme. (E) Lineweaver-Burk plot analysis. PTPRZ1 enzymes were preincubated with NAZ2329 for 60 min, and the PTP activity was measured using DiFMUP. (F) Concentration-inhibition curves of NAZ2329 for representative PTP members, including human PTPRZ and PTPRG (another R5 RPTP subfamily member), human PTPRS (R2A subfamily), human PTPRM (R2B subfamily), mouse PTPRB (R3 subfamily), human PTPRA (R4 subfamily), human PTPN1 (non-transmembrane PTP, NT1 subfamily), and human PTPN6 (NT2 subfamily), were generated. Assays were performed using DiFMUP. IC50 values obtained are shown in the inset. Data represent the averages of two or three separate experiments. TEXT PRINTED IN THE PICTURE: (F) NAZ2329: IC50 (μM): hPTPRZ1 7.5; IC50 (μM): hPTPRG 4.8; IC50 (μM): hPTPRA 35.7; IC50 (μM): hPTPRM 56.7; IC50 (μM): hPTPRS 23.7; IC50 (μM): mPTPRB 35.4; IC50 (μM): hPTPN6 15.2; IC50 (μM): hPTPN1 14.5
Recombinant proteins corresponding to the entire intracellular regions (ICRs) of PTPRZ1, PTPRA, and PTPRM were expressed using a baculovirus-silkworm expression system, and purified as described. The ICRs of PTPRG, PTPRS, and PTPRB and the catalytic domains of PTPN1 and PTPN6 were expressed as glutathione-S-transferase (GST) fusion proteins from each pGEX plasmid in Escherichia coli strain BL21 (ref. [6]). GST fusion proteins were purified by glutathione affinity chromatography as described. Chondroitinase ABC (chABC) was purchased from Sigma-Aldrich (catalog #C3667). Anti-PTPRZ-S, rabbit polyclonal antibodies against the extracellular region of PTPRZ was described previously (ref. [44]). The following are the specificities and sources of the commercially available antibodies used in the present study: Anti-RPTPβ (a monoclonal antibody against the intracellular domain of PTPRZ1 receptors, #610179, BD Biosciences), anti-SOX2 (#ab97959, Abcam), anti-POU3F2 (#12137, Cell Signaling), anti-OLIG2 (#AB9610, Millipore), anti-SALL2 (#12679–1-AP, Proteintech Group), anti-GAPDH (#ab9482, Abcam) anti-phosphotyrosine (PY20; #ab16389, Abcam), and anti-pY118-paxillin (#2541, Cell Signaling), mouse anti-paxillin antibody (#610569, BD Bioscience), anti-MBP (#sc-13914, Santa Cruz Biotechnology), and anti-NG2 proteoglycan (#AB5320, Millipore). […]

hPTPRZ1 (D1) = target: T2, hPTPRZ1 (D1) (Homo sapiens, UniProt P23471); assay: In vitro PTPase assay (DiFMUP), PTPRZ1 D1 domain; format: biochemical; settings: first PTP domain fragment
T2 construct: human PTPRZ1-D1 (amino acid residues, 1,698-2,000)
T2 sequence (P23471 1698-2000 limits assumed): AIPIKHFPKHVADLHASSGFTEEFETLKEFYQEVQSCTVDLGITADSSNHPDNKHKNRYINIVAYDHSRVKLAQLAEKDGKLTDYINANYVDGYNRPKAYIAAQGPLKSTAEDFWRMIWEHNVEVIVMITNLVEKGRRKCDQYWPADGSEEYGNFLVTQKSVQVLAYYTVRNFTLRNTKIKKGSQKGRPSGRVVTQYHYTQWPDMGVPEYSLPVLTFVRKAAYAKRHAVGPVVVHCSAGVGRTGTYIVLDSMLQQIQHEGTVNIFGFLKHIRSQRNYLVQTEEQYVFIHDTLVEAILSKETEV

inhibitory effects on PTPRZ activity ([3]; Supplementary Fig. S2) | IC50 hPTPRZ1 (D1+D2) ([3]; whole intracellular region, DiFMUP, 60-min preincubation) | IC50 hPTPRZ1 (D1) (hPTPRZ1 (D1)) | SMILES | cell permeability [1] | change in sensitivity on V-to-F substitution in PTPRZ and PTPRG [2] | median day for the tumor size to reach 3,000 mm^3 (C6 xenograft)
– | – | – | O=S(=O)([O-])c1ccc2c(N=Nc3ccc(S(=O)(=O)[O-])c4ccccc34)c(O)c(S(=O)(=O)[O-])cc2c1.[Na+].[Na+].[Na+] [SCB4380] | cell impermeable | ~ 5% | –
no significant inhibitory effects | ns | ns | Cn1nnc2c(C(N)=O)ncn2c1=O [temozolomide, reference compound] | – | – | 25 days
– | – | – | [O]=[V]([O-])([O-])[O-] [vanadate] | – | ~ 5% | –
